Counter-ions that a name gives are not always drawn.

The values that follow come from patent publication US10123993B2, “Cyclic ureas as inhibitors of rock” (BRISTOL-MYERS SQUIBB COMPANY, priority 2015, dated 2018).

Sequence of ROCK2 (O75116 whole entry, species assumed): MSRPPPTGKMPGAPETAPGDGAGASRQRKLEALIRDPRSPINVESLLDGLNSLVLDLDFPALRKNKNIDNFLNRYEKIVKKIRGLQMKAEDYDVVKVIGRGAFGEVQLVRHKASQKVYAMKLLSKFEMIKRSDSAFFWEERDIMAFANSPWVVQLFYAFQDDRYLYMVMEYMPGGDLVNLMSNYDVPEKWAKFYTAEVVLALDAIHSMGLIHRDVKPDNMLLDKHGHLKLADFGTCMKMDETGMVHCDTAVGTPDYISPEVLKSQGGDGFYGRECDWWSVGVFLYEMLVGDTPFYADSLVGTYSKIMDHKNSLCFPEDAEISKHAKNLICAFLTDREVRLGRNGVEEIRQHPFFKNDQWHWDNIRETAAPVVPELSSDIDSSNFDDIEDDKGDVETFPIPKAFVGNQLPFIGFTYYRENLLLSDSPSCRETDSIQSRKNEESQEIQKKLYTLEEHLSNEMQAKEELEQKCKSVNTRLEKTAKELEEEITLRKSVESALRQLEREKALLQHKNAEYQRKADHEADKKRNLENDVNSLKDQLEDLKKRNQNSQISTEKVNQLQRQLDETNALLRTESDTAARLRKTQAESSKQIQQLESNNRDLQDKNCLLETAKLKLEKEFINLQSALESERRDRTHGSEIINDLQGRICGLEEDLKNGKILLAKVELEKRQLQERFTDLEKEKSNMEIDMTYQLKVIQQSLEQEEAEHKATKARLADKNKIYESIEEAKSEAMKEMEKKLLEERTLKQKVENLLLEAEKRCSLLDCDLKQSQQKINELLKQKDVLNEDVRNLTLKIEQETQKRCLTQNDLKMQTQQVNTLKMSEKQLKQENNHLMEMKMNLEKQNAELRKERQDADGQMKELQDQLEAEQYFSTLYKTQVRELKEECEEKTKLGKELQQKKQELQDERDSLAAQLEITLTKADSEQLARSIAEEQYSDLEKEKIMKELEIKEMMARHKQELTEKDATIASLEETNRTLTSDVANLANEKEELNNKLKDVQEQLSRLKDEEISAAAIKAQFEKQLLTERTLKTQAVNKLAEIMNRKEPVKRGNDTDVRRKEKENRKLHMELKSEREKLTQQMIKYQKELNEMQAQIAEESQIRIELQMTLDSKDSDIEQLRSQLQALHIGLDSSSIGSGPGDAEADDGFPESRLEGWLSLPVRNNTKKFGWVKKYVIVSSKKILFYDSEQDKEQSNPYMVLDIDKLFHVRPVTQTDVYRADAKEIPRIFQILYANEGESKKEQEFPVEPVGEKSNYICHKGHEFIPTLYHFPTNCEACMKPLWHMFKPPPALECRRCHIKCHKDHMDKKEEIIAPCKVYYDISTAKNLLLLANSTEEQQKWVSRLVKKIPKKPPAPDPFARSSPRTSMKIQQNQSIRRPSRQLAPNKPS

This test concerns the target ROCK2 (Homo sapiens, UniProt O75116). Nature of the test: ROCK2 kinase inhibition assay (Caliper LABCHIP, FITC peptide substrate). Type of test: biochemical. Conditions: 5 μM ATP, 1.5 μM peptide substrate; value ranges. The procedure, abridged:
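Dose-response curves gave IC50 from inhibition of peptide phosphorylation, measured by LabChip separation after EDTA stop. Reactions used 1.5 μM FITC-labelled peptide, 5 μM ATP, 20 mM HEPES pH 7.5 with MgCl2, Brij-35, DTT, and under 2% DMSO.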
On to `COc1cccc(CN2CCN(c3ccc(-c4cn[nH]c4)c(OC)n3)C2=O)c1` [Example 466, 1-(6-methoxy-5-(1H-pyrazol-4-yl)pyridin-2-yl)-3-(3-methoxybenzyl)imidazolidin-2-one], for which the IC50 was < 2 nM. The figure for `CC(c1ccccc1)n1ccn(-c2ccc(-c3cn[nH]c3)cc2)c1=O` (single isomer, unassigned; (-)) [Example 73, (−)-1-(4-(1H-pyrazol-4-yl)phenyl)-3-(1-phenylethyl)-1H-imidazol-2(3H)-one] is 20.1 to 200 nM; for `CCc1nc(-n2ccn(C(C)c3ccc(F)c(OC)c3)c2=O)ccc1-c1cn[nH]c1` (single isomer, unassigned) [Example 388, 1-(6-ethyl-5-(1H-pyrazol-4-yl)pyridin-2-yl)-3-(1-(4-fluoro-3-methoxyphenyl)ethyl)-1H-imidazol-2(3H)-one] it is 2.1 to 20 nM; for `COc1cc(F)cc(Cn2ccn(-c3ccc(-c4cn[nH]c4)c(C)n3)c2=O)c1` [Example 185, 1-(3-fluoro-5-methoxy-benzyl)-3-(6-methyl-5-(1H-pyrazol-4-yl)pyridin-2-yl)-1H-imidazol-2(3H)-one] it is 2.1 to 20 nM. The figure for `CCc1nc(N2CCN(C(C)c3ccc(F)c(OC)c3)C2=O)ccc1-c1cn[nH]c1` (single isomer, unassigned) [Example 271, 1-(6-ethyl-5-(1H-pyrazol-4-yl)pyridin-2-yl)-3-(1-(4-fluoro-3-methoxyphenyl)ethyl)imidazolidin-2-one] is 200 to 2000 nM; for `COc1cccc(CN2C(=O)N(c3ccc(-c4cn[nH]c4)c(OC)c3)CC2CO)c1` (single isomer, unassigned) [Example 134, 4-(hydroxy-methyl)-1-(3-methoxy-4-(1H-pyrazol-4-yl)phenyl)-3-(3-methoxy-benzyl) imidazolidin-2-one] it is 200 to 2000 nM; for `CC(c1ccccc1)N1C(=O)CN(c2ccc(-c3cn[nH]c3)cc2)C1=O` (stereo not shown) [Example 109, 1-(4-(1H-pyrazol-4-yl)phenyl)-3-(1-phenylethyl) imidazolidine-2,4-dione] it is 200 to 2000 nM. The figure for `COc1cccc(C(C(=O)NCC(C)C)N2CCN(c3ccc(-c4cn[nH]c4)cc3)C2=O)c1` (single isomer, unassigned) [Example 293, 2-(3-(4-(1H-pyrazol-4-yl)phenyl)-2-oxoimidazolidin-1-yl)-N-isobutyl-2-(3-methoxyphenyl)acetamide] is 200 to 2000 nM; for `COc1cccc(CN2C(=O)N(c3ccc(-c4cn[nH]c4)cn3)CC2(C)C)c1` [Example 451, 1-(5-(1H-pyrazol-4-yl)pyridin-2-yl)-3-(3-methoxybenzyl)-4,4-dimethylimidazolidin-2-one] it is < 2 nM; for `COc1cc(F)cc(CN2CC(=O)N(c3ccc(-c4cn[nH]c4)c(OC)c3)C2=O)c1` [Example 94, 1-(3-fluoro-5-methoxybenzyl)-3-(3-methoxy-4-(1H-pyrazol-4-yl)phenyl)imidazolidine-2,4-dione, TFA] it is 20.1 to 200 nM.

Take `COc1cccc(CN2C(=O)N(c3ccc(-c4cn[nH]c4)cn3)C[C@H]2CO)c1` [Example 314, (S)-1-(5-(1H-pyrazol-4-yl)pyridin-2-yl)-4-(hydroxymethyl)-3-(3-methoxybenzyl)imidazolidin-2-one]: the half-maximal inhibitory concentration (IC50) fell in the range of 2.1 to 20 nM. Under `COc1cc(N2C(=O)CN(CCc3ccccc3)C2=O)ccc1-c1cn[nH]c1` [Example 97, 3-(3-methoxy-4-(1H-pyrazol-4-yl)phenyl)-1-phenethylimidazolidine-2,4-dione] stands 200 to 2000 nM; under `COc1cc(C(C)n2ccn(-c3ccc(-c4cn[nH]c4)c(OC)n3)c2=O)ccc1F` (single isomer, unassigned) [Example 389, 1-(1-(4-fluoro-3-methoxyphenyl)ethyl)-3-(6-methoxy-5-(1H-pyrazol-4-yl)pyridin-2-yl)-1H-imidazol-2(3H)-one], < 2 nM.

As a reminder, the IC50 is the concentration that inhibits the measured activity by half. The low end stands for inhibition by little substance, the high end for a need for much substance.
